Measurements as given in patent US8536202B2, “Triazole-substituted anthranilamides as pesticides” (Bayer Cropscience AG, priority 2010, dated 2013).
Like-named read-outs stand apart in the source and are kept apart here.

Legend:
[1] = tested on: larvae of the mustard beetle (Phaedon cochleariae); assay: Phaedon test (PHAECO spray treatment); assay type: in vivo; details: 168 h, 100 g/ha, after 7 days, read-out: activity in %
Method in brief: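 Mortality of mustard beetle larvae, expressed as percent killed (100% all, 0% none), assessed 7 days after spraying. Spray liquor made from compound in acetone plus dimethylformamide with alkylaryl polyglycol ether, diluted in emulsifier-containing water to the desired concentration.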

[2] = tested on: caterpillars of the armyworm (Spodoptera frugiperda); assay: Spodoptera frugiperda test (SPODFR spray treatment); assay type: in vivo; details: 168 h, 100 g/ha, after 7 days, read-out: activity in %
Method in brief: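 Percent caterpillar mortality read 7 days after infestation (0% none killed, 100% all killed). Treatment was a spray of the acetone/DMF/emulsifier formulation, water-diluted to test concentration, onto Zea mays leaf discs, allowed to dry before larvae were added.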

[3] = log P determination by HPLC on reversed-phase columns (EEC Directive 79/831 Annex V.A8); assay type: physicochemical; details: pH 2.7
Method in brief: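 Calibration used unbranched alkan-2-ones of 3 to 16 carbons with known log P, values interpolated linearly from retention times between neighbouring standards. Acidic-range LC-MS run at pH 2.7, eluents aqueous and acetonitrile formic acid 0.1%, linear gradient 10% to 95% acetonitrile.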

[4] = reversed-phase C18 HPLC column, HPLC on reversed-phase columns (C 18), EEC Directive 79/831 Annex V.A8, read-out: logP

Row | SMILES | pest or weed control at 100 g/ha [1] [%] | pest or weed control at 100 g/ha [2] [%] | chromatographic logP [3] | chromatographic logP [3, 4]
1 | CNC(=O)c1cc(C#N)cc(C)c1NC(=O)c1cc(Cn2nnc3cc(Br)c(C(F)(F)F)cc32)nn1-c1ncccc1Cl [Example 97] | 100 | 100 | 3.27 | –
2 | CNC(=O)c1cc(C#N)cc(C)c1NC(=O)c1cc(Cn2nnc3c(Cl)cc(C(F)(F)F)cc32)nn1-c1ncccc1Cl [Example 98] | 100 | 100 | 3.24 | –
3 | CNC(=O)c1cc(C#N)cc(C)c1NC(=O)c1cc(Cn2nnc3c(Br)cc(OC(F)(F)F)cc32)nn1-c1ncccc1Cl [Example 99] | 100 | 100 | 3.37 | –
4 | CNC(=O)c1cc(C#N)cc(C)c1NC(=O)c1cc(Cn2nc3cc(OC(F)(F)F)cc(Br)c3n2)nn1-c1ncccc1Cl [Example 100] | 100 | 100 | 3.78 | –
5 | CNC(=O)c1cc(C#N)cc(C)c1NC(=O)c1cc(Cn2nc3ccc(C(F)(F)F)cc3n2)nn1-c1ncccc1Cl [Example 102] | 100 | 100 | 3.19 | –
6 | Cc1cc(C#N)cc(C(=O)NC(C)(C)C)c1NC(=O)c1cc(Cn2nc3ccc(Br)cc3n2)nn1-c1ncccc1Cl [Example 107] | 100 | 100 | 3.85 | –
7 | Cc1cc(C#N)cc(C(=O)NC(C)(C)C)c1NC(=O)c1cc(Cn2nnc3c(Cl)c(Cl)c(Cl)cc32)nn1-c1ncccc1Cl [Example 108] | 100 | 100 | 4.18 | –
8 | Cc1cc(C#N)cc(C(=O)NC(C)(C)C)c1NC(=O)c1cc(Cn2nnc3cc(Br)c(C(F)(F)F)cc32)nn1-c1ncccc1Cl [Example 109] | 100 | 100 | – | 4.02
9 | Cc1cc(C#N)cc(C(=O)NC(C)(C)C)c1NC(=O)c1cc(Cn2nnc3c(Br)cc(OC(F)(F)F)cc32)nn1-c1ncccc1Cl [Example 111] | 100 | 100 | – | 4.09
10 | Cc1cc(C#N)cc(C(=O)NC(C)(C)C)c1NC(=O)c1cc(Cn2nc3cc(OC(F)(F)F)cc(Br)c3n2)nn1-c1ncccc1Cl [Example 112] | 100 | 100 | – | 4.59
11 | Cc1cc(C#N)cc(C(=O)NC(C)(C)C)c1NC(=O)c1cc(Cn2nnc3cc(C(F)(F)F)ccc32)nn1-c1ncccc1Cl [Example 113] | 100 | 100 | 3.5 | –
12 | Cc1cc(C#N)cc(C(=O)NC(C)(C)C)c1NC(=O)c1cc(Cn2nc3ccc(C(F)(F)F)cc3n2)nn1-c1ncccc1Cl [Example 114] | 100 | 100 | 3.94 | –
13 | Cc1cc(Cl)cc(C(=O)NC(C)C2CC2)c1NC(=O)c1cc(Cn2ccnn2)nn1-c1ncccc1Cl (stereo not drawn) [Example 117] | 100 | 100 | 2.41 | –
14 | CNC(=O)c1cc(Cl)cc(C)c1NC(=O)c1cc(Cn2nccn2)nn1-c1ncccc1Cl [Example 118] | 100 | 100 | 2.03 | –
15 | Cc1cc(Cl)cc(C(=O)NC(C)C)c1NC(=O)c1cc(Cn2nccn2)nn1-c1ncccc1Cl [Example 119] | 100 | 100 | 2.5 | –
16 | Cc1cc(Cl)cc(C(=O)NC(C)C2CC2)c1NC(=O)c1cc(Cn2nccn2)nn1-c1ncccc1Cl (stereo not drawn) [Example 122] | 100 | 100 | 2.81 | –

Row | SMILES | pest or weed control at 100 g/ha [1] [%] | pest or weed control at 100 g/ha [2] [%] | chromatographic logP [3] | chromatographic logP [3, 4]
17 | CCNC(=O)c1cc(Cl)cc(C)c1NC(=O)c1cc(Cn2ncc(C(F)(F)F)n2)nn1-c1ncccc1Cl [Example 138] | 100 | 100 | 3.26 | –
18 | Cc1cc(Cl)cc(C(=O)NC(C)(C)C)c1NC(=O)c1cc(Cn2ncc(C(F)(F)F)n2)nn1-c1ncccc1Cl [Example 140] | 100 | 100 | 3.85 | –
19 | Cc1cc(Cl)cc(C(=O)NCC2CC2)c1NC(=O)c1cc(Cn2ncc(C(F)(F)F)n2)nn1-c1ncccc1Cl [Example 141] | 100 | 100 | 3.55 | –
20 | Cc1cc(Cl)cc(C(=O)NC2CCC2)c1NC(=O)c1cc(Cn2ncc(C(F)(F)F)n2)nn1-c1ncccc1Cl [Example 142] | 100 | 100 | 3.64 | –
21 | NC(=O)c1cc(Cl)cc(Cl)c1NC(=O)c1cc(Cn2ncc(C(F)(F)F)n2)nn1-c1ncccc1Cl [Example 145] | 100 | 100 | 2.69 | –
22 | O=C(NC1CC1)c1cc(Cl)cc(Cl)c1NC(=O)c1cc(Cn2ncc(C(F)(F)F)n2)nn1-c1ncccc1Cl [Example 148] | 100 | 100 | 3.18 | –
23 | CCNC(=O)c1cc(Cl)cc(Cl)c1NC(=O)c1cc(Cn2ncc(C(F)(F)F)n2)nn1-c1ncccc1Cl [Example 149] | 100 | 100 | 3.2 | –
24 | O=C(NCC1CC1)c1cc(Cl)cc(Cl)c1NC(=O)c1cc(Cn2ncc(C(F)(F)F)n2)nn1-c1ncccc1Cl [Example 152] | 100 | 100 | 3.48 | –
25 | O=C(NC1CCC1)c1cc(Cl)cc(Cl)c1NC(=O)c1cc(Cn2ncc(C(F)(F)F)n2)nn1-c1ncccc1Cl [Example 153] | 100 | 100 | 3.56 | –
26 | N#CCNC(=O)c1cc(Cl)cc(Cl)c1NC(=O)c1cc(Cn2ncc(C(F)(F)F)n2)nn1-c1ncccc1Cl [Example 154] | 100 | 100 | 2.9 | –
27 | Cc1cc(I)cc(C(=O)NC(C)C2CC2)c1NC(=O)c1cc(Cn2ncc(C(F)(F)F)n2)nn1-c1ncccc1Cl (stereo not drawn) [Example 158] | 100 | 100 | 4.05 | –
28 | Cc1cc(I)cc(C(=O)NC2CC2)c1NC(=O)c1cc(Cn2ncc(C(F)(F)F)n2)nn1-c1ncccc1Cl [Example 159] | 100 | 100 | 3.45 | –
29 | CCNC(=O)c1cc(I)cc(C)c1NC(=O)c1cc(Cn2ncc(C(F)(F)F)n2)nn1-c1ncccc1Cl [Example 160] | 100 | 100 | 3.5 | –
30 | Cc1cc(I)cc(C(=O)NC(C)C)c1NC(=O)c1cc(Cn2ncc(C(F)(F)F)n2)nn1-c1ncccc1Cl [Example 161] | 100 | 100 | 3.73 | –
31 | Cc1cc(I)cc(C(=O)NCC2CC2)c1NC(=O)c1cc(Cn2ncc(C(F)(F)F)n2)nn1-c1ncccc1Cl [Example 163] | 100 | 100 | 3.8 | –
